Like-named read-outs stand apart in the source and are kept apart here.
Columns and labels:
SARS-CoV-2 [1] = details: in vivo; cited from earlier work
calpain1 = calpain1 (Homo sapiens, UniProt P07384); assay type: biochemical
SARS-CoV-2 AY.20 Delta = test: microbe, parasite or virus in culture; assay type: cell-based
CoV-OC43 = test: organism not typed; assay type: cell-based
cathepsin L = cathepsin L (Homo sapiens, UniProt P07711); test: biochemical
SARS-CoV-2 Alpha = test: microbe, parasite or virus in culture; assay type: cell-based
[2] = tested on: SARS-CoV-2 BA.1.1 Omicron; test: microbe, parasite or virus in culture; assay type: cell-based
caspase 3 = caspase 3 (Homo sapiens, UniProt P42574); assay type: biochemical
CoV-229E = test: organism not typed; assay type: cell-based
SARS-CoV-2 WA1 NLuc = test: microbe, parasite or virus in culture; assay type: cell-based
elastase = assay type: biochemical, human
CoV-OC43 M^pro = target: T1, CoV-OC43 M^pro (Human coronavirus OC43, UniProt P0C6X6); test: biochemical
T1 construct: M^pro proteins from other human CoVs were also cloned, expressed in E. coli and purified by WuXi AppTec; host or cells: E. coli

SARS-CoV-2 Epsilon = test: microbe, parasite or virus in culture; assay type: cell-based
SARS-CoV-2 M^pro = target: T2, SARS-CoV-2 M^pro (Severe acute respiratory syndrome coronavirus 2, UniProt P0DTC1); assay type: biochemical
T2 construct: composed of about 300 amino acids embedded in the polyproteins as the nsp5 domain; purchased BPS Biosciences

[3] = tested on: SARS-CoV-2 BA.2.12.1 Omicron; test: microbe, parasite or virus in culture; assay type: cell-based
CoV-NL63 M^pro = target: T3, CoV-NL63 M^pro (Human coronavirus NL63, UniProt P0C6X5); test: biochemical
T3 construct: M^pro proteins from other human CoVs were also cloned, expressed in E. coli and purified by WuXi AppTec; host or cells: E. coli

CoV-229E M^pro = target: T4, CoV-229E M^pro (Human coronavirus 229E, UniProt P0C6X1); test: biochemical
T4 construct: M^pro proteins from other human CoVs were also cloned, expressed in E. coli and purified by WuXi AppTec; host or cells: E. coli

[4] = tested on: SARS-CoV-2 Wuhan replicon (WT); test: microbe, parasite or virus in culture; assay type: cell-based
chymotrypsin C = chymotrypsin C (Homo sapiens, UniProt Q99895); assay type: biochemical
cathepsin D = cathepsin D (Homo sapiens, UniProt P07339); assay type: biochemical
[5] = tested on: SARS-CoV-2 BA.4.1 Omicron; test: microbe, parasite or virus in culture; assay type: cell-based
cathepsin S = cathepsin S (Homo sapiens, UniProt P25774); test: biochemical
caspase-2 = caspase-2 (Homo sapiens, UniProt P42575); assay type: biochemical
thrombin = thrombin (Homo sapiens, UniProt P00734); assay type: biochemical
CoV-HKU1 M^pro = target: T5, CoV-HKU1 M^pro (Human coronavirus HKU1, UniProt P0C6X2); test: biochemical
T5 construct: M^pro proteins from other human CoVs were also cloned, expressed in E. coli and purified by WuXi AppTec; host or cells: E. coli

cathepsin B = cathepsin B (Homo sapiens, UniProt P07858); test: biochemical
SARS-CoV-2 Mu = test: microbe, parasite or virus in culture; assay type: cell-based
[6] = tested on: SARS-CoV-2 BA.5.2.1 Omicron; test: microbe, parasite or virus in culture; assay type: cell-based
cathepsin K = cathepsin K (Homo sapiens, UniProt P43235); test: biochemical
SARS-CoV-2 BA.2 Omicron = test: microbe, parasite or virus in culture; assay type: cell-based
SARS-CoV-2 [7] = details: human, in vivo; cited from earlier work
SARS-CoV-2 Delta = test: microbe, parasite or virus in culture; assay type: cell-based
dipeptidyl peptidase IV = dipeptidyl peptidase IV (Homo sapiens, UniProt P27487); assay type: biochemical
SARS-CoV2 WT M^pro = target: T6, SARS-CoV2 WT M^pro (Severe acute respiratory syndrome coronavirus 2, UniProt P0DTC1); assay type: biochemical, SARS-CoV-2
T6 construct: codon-optimized cDNA of SARS-CoV-2 M^pro (QIZ13716.1_ORF1a) was cloned into the pET28a vector; host or cells: E. coli

[8] = Severe acute respiratory syndrome coronavirus 2, read-out: EC50 Mean (SD)
[9] = Severe acute respiratory syndrome coronavirus 2, read-out: EC90 Mean (SD)

T4 sequence (P0C6X1 2966-3267 limits assumed): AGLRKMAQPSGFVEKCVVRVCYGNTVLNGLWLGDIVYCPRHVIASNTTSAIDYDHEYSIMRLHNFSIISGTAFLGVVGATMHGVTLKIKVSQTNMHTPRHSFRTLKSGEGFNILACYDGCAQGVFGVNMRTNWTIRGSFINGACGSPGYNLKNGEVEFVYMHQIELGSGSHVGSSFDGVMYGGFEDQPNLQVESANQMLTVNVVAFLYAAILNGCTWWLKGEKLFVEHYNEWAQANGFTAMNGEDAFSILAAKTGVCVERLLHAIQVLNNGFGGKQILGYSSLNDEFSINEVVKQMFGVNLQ
cathepsin K, sequence (P43235 115-329): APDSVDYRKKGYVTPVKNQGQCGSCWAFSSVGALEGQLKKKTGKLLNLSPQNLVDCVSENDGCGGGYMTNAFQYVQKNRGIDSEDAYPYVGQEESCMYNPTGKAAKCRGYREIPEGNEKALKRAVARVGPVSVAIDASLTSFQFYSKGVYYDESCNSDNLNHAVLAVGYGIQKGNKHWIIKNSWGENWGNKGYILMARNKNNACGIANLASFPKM
T3 sequence (P0C6X5 2940-3242 limits assumed): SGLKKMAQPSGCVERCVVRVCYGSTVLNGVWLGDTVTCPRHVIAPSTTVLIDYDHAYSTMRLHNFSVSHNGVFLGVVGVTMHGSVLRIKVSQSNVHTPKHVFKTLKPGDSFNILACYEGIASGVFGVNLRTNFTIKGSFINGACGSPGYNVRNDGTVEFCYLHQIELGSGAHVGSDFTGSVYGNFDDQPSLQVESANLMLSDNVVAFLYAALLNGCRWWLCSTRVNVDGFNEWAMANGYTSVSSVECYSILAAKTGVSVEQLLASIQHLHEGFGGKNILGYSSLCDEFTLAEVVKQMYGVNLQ
caspase 3, sequence (P42574 29-175): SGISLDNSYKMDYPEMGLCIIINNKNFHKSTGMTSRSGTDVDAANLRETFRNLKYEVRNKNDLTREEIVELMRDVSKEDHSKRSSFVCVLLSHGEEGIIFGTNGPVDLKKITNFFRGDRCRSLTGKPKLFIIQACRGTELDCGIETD
caspase 3, sequence (P42574 176-277): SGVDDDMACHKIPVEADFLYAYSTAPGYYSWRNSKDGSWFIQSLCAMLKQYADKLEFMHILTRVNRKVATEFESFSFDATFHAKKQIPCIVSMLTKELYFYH
calpain1, sequence (P07384 whole entry): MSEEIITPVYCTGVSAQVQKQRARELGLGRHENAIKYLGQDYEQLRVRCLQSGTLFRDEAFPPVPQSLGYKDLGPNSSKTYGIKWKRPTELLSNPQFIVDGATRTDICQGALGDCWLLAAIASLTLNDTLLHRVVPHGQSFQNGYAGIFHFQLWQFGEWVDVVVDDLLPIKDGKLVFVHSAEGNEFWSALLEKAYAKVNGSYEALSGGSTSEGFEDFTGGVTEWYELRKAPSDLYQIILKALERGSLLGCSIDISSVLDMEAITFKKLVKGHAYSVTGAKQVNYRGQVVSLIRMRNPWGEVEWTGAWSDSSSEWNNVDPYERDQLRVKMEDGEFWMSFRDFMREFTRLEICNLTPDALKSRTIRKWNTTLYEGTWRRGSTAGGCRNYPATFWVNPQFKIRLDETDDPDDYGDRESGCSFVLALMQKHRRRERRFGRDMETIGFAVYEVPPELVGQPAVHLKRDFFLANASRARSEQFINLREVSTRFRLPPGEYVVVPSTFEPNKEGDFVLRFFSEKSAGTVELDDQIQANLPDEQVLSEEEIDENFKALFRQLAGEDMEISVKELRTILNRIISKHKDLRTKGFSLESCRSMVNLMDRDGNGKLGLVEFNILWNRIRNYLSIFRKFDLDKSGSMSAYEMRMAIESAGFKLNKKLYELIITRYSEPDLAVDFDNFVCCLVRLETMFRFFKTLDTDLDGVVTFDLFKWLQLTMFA
calpain1, sequence (P04632 whole entry, further chain): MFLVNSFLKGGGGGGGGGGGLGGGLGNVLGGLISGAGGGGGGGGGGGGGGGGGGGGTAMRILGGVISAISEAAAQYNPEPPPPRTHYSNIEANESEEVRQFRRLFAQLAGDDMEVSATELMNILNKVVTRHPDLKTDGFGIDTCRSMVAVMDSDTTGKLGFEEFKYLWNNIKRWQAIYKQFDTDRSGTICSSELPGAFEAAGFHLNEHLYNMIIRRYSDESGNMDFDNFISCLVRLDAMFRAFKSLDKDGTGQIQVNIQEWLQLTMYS
T5 sequence (P0C6X2 3335-3637 limits assumed): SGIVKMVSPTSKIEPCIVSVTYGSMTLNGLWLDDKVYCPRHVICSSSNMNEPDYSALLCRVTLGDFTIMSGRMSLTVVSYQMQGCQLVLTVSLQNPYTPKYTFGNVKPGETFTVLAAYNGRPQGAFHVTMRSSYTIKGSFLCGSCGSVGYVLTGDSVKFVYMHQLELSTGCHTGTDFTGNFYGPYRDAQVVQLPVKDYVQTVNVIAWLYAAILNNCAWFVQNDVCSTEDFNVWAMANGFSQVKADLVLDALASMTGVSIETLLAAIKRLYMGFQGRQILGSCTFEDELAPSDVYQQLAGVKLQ
caspase-2, sequence (P42575 170-325): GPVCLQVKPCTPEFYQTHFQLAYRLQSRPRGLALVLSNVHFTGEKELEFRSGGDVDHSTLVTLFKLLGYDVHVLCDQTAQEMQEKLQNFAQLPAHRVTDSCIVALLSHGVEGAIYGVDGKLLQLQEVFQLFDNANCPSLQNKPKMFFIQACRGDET
caspase-2, sequence (P42575 348-452): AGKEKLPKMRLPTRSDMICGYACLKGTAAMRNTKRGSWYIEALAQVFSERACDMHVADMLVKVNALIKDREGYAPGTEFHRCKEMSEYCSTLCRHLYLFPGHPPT
chymotrypsin C, sequence (Q99895 30-268): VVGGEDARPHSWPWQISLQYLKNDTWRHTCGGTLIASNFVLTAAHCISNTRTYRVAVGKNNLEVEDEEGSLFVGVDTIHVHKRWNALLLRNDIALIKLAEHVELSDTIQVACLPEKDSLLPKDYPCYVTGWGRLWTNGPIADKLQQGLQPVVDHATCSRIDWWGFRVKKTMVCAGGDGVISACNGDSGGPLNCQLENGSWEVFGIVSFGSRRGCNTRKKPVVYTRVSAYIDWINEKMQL
cathepsin L, sequence (P07711 114-333): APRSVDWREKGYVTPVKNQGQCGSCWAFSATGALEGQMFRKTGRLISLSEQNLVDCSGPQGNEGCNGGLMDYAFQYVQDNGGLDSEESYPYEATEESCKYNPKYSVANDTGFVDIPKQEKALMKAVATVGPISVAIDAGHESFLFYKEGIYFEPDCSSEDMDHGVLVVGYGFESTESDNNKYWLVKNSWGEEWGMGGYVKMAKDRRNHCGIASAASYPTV
cathepsin D, sequence (P07339 65-412): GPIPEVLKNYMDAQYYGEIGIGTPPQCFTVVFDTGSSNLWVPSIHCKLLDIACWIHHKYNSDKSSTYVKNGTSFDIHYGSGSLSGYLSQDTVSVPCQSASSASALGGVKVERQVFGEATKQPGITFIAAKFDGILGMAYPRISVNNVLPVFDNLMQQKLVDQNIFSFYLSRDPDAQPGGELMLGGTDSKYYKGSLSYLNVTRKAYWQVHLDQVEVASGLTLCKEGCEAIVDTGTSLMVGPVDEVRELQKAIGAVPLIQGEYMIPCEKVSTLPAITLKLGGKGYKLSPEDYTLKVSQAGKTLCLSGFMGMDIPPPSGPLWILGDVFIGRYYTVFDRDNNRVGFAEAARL
cathepsin S, sequence (P25774 115-331): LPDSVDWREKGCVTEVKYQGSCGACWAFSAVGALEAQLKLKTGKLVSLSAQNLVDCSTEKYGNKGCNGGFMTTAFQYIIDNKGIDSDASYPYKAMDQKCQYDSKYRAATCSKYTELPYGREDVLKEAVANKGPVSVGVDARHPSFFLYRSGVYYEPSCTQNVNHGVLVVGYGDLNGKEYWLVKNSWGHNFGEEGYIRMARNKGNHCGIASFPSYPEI
dipeptidyl peptidase IV, sequence (P27487 whole entry): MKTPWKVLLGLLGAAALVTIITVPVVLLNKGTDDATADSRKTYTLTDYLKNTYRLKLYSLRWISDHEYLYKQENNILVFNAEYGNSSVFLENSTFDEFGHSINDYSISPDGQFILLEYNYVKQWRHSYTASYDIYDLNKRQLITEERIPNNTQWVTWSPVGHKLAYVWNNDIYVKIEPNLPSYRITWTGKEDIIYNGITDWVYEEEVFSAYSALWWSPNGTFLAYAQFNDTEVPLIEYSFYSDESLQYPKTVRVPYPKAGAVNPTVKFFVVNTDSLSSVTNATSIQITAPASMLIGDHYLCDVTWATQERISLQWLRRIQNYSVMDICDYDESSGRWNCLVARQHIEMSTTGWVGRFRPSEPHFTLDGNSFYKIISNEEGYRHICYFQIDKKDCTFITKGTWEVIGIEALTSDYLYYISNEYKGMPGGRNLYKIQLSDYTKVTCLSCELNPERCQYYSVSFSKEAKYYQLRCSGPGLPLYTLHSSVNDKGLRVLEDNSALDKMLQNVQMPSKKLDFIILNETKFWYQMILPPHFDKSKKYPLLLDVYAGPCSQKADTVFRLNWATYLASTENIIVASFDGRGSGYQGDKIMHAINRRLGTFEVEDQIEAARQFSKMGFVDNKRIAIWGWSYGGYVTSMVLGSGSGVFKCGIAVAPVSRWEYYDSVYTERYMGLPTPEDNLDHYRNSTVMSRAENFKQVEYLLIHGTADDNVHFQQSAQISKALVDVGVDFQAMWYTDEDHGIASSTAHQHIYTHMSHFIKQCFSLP
T1 sequence (P0C6X6 3247-3549 limits assumed): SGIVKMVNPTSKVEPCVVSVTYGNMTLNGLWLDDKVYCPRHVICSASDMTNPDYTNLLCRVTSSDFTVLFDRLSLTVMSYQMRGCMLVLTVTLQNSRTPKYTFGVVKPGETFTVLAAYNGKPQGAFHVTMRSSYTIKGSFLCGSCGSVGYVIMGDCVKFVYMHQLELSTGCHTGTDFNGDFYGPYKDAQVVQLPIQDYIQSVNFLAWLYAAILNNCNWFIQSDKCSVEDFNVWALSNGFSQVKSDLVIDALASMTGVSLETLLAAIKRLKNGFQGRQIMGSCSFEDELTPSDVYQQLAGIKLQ

CC(C)C[C@@H](C(=O)N1C[C@]2(C[C@H]1C#N)C(=O)Nc1ccccc12)N(C)C(=O)c1cc2c(F)cc(F)c(F)c2[nH]1 [EDP-235]
effect on viral RNA decline or infectious viral load in nasal samples (SARS-CoV-2 [1]): failed to demonstrate the effect on viral RNA decline or infectious viral load in nasal samples

N#C[C@H](C[C@@H]1CCCNC1=O)NC(=O)[C@H](CC1CC1)NC(=O)c1cc2cccc(Cl)c2[nH]1 [pomotrelvir]
inhibitory activity (calpain1): no inhibitory activity was observed | EC50 (SARS-CoV-2 AY.20 Delta; [8]): 374 nM | EC90 (SARS-CoV-2 AY.20 Delta; [9]): 672 nM | EC50 (CoV-OC43; Huh-7, read-out: Mean EC50 (SD)): 380 nM | EC90 (CoV-OC43; Huh-7, read-out: Mean EC90 (SD)): 490 nM | Ki (cathepsin L): 7400 nM | EC50 (SARS-CoV-2 Alpha; [8]): 95 nM | EC90 (SARS-CoV-2 Alpha; [9]): 144 nM | EC50 [2, 8]: 94 nM | EC90 [2, 9]: 213 nM | inhibitory activity (caspase 3): no inhibitory activity was observed | EC90 (CoV-229E; MRC5, read-out: Mean EC90 (SD)): 410 nM | EC50 (CoV-229E; read-out: Mean EC50 (SD)): 180 nM | EC90 (SARS-CoV-2 WA1 NLuc; Severe acute respiratory syndrome coronavirus 2, A549-ACE2, read-out: Mean EC90 (SD)): 114 nM | EC50 (SARS-CoV-2 WA1 NLuc; read-out: Mean EC50 (SD)): 23 nM | inhibitory activity (elastase): no inhibitory activity was observed | IC50 (CoV-OC43 M^pro): 158 nM | EC50 (SARS-CoV-2 Epsilon; [8]): 195 nM | EC90 (SARS-CoV-2 Epsilon; [9]): 777 nM | alpha factor (SARS-CoV-2 M^pro): 10.4 | EC50 [3, 8]: 60 nM | EC90 [3, 9]: 171 nM | IC50 (CoV-NL63 M^pro): 206 nM | IC50 (CoV-229E M^pro): 141 nM | EC50 ([4]; Severe acute respiratory syndrome coronavirus 2, Huh-7, read-out: EC50 Mean (SD)): 31 nM | EC90 ([4]; Severe acute respiratory syndrome coronavirus 2, Huh-7, read-out: EC90 Mean (SD)): 170 nM | EC50 ([4]; read-out: Mean EC50 (SD)): 27 nM | EC90 ([4]; read-out: Mean EC90 (SD)): 150 nM | inhibitory activity (chymotrypsin C): no inhibitory activity was observed | inhibitory activity (cathepsin D): no inhibitory activity was observed | EC50 [5, 8]: 244 nM | EC90 [5, 9]: 1120 nM | Ki (cathepsin S): 445 nM | inhibitory activity (caspase-2): no inhibitory activity was observed | inhibitory activity (thrombin): no inhibitory activity was observed | IC50 (CoV-HKU1 M^pro): 61 nM | Ki (cathepsin B): 1270 nM | EC50 (SARS-CoV-2 Mu; [8]): 73 nM | EC90 (SARS-CoV-2 Mu; [9]): 195 nM | EC50 [6, 8]: 256 nM | EC90 [6, 9]: 1270 nM | Ki (cathepsin K): 289 nM | EC90 (SARS-CoV-2 BA.2 Omicron; [9]): 668 nM | EC50 (SARS-CoV-2 BA.2 Omicron; read-out: EC50 Mean (SD)): 139 nM | primary endpoint: proportion of patients below the limit of detection by infectious virus assay on day 3 of treatment (SARS-CoV-2 [7]): did not meet the primary endpoint | EC50 (SARS-CoV-2 Delta; [8]): 251 nM | EC90 (SARS-CoV-2 Delta; [9]): 425 nM | inhibitory activity (dipeptidyl peptidase IV): no inhibitory activity was observed

GC376
IC50 (SARS-CoV2 WT M^pro): 20 nM

From PMC10649086 (Antimicrobial Agents and Chemotherapy, 2023)
